Results published in patent US20260317344A1, “EGFR INHIBITORS FOR TREATING DISEASE” (BLOSSOMHILL THERAPEUTICS, INC., priority 2023, published 2026).
Like-named read-outs stand apart in the source and are kept apart here.

What was measured:
Format in all cases: cell-based
[1] = tested on: BaF3 cells with engineered EGFR L858R/T790M/C797S; experiment: 3-Day CellTiter Glo (CTG) cell proliferation assay, BaF3 EGFR L858R/T790M/C797S; settings: Mus musculus, 3-day CTG proliferation, 72 hours
Method: (§1) 3-DAY CellTiter Glo (CTG) Cell Proliferation Assays (BaF3 Cell Lines)
(§2) Cell proliferation assays were carried out in BaF3 cells engineered with EGFR mutations. BaF3 cells with engineered EGFR L858R/T790M/C797S, EGFR L858R/C797S, or EGFR d746-750/T790M transgene, one thousand cells/50 μL per well were seeded in white 384-well plate, followed by treatment with indicated compounds in a 9-dose dilution series using TECAN d300e liquid dispenser. Cells were incubated with compounds for 72 hours at 37° C. and 5% CO2. Cell proliferation was measured using CellTiter-Gbo 2.0 luciferase-based ATP detection assay (Promega, Madison, WI) at 18 μL per well following the manufacturer's protocol. Plates were then read on a TECAN Sparks multimode microplate reader. Data was analyzed using GraphPad Prism 9 (GraphiPad Software, San Diego, CA) to obtain IC50 values.

[2] = tested on: BaF3 cells with engineered EGFR L858R/C797S; experiment: 3-Day CellTiter Glo (CTG) cell proliferation assay, BaF3 EGFR L858R/C797S; settings: Mus musculus, 3-day CTG proliferation, 72 hours
Method: as §1, §2

[3] = molecular target: T1, pEGFR, PC-9 cells (d746-750 EGFR) (Homo sapiens, UniProt P00533, DEL746-750); experiment: Cellular EGFR phosphorylation assay (LANCE Ultra TR-FRET) in PC-9 cells
T1 construct: pEGFR (Tyr1068) TR-FRET
T1 sequence (P00533 with tags, fused parts or gaps DEL746-750): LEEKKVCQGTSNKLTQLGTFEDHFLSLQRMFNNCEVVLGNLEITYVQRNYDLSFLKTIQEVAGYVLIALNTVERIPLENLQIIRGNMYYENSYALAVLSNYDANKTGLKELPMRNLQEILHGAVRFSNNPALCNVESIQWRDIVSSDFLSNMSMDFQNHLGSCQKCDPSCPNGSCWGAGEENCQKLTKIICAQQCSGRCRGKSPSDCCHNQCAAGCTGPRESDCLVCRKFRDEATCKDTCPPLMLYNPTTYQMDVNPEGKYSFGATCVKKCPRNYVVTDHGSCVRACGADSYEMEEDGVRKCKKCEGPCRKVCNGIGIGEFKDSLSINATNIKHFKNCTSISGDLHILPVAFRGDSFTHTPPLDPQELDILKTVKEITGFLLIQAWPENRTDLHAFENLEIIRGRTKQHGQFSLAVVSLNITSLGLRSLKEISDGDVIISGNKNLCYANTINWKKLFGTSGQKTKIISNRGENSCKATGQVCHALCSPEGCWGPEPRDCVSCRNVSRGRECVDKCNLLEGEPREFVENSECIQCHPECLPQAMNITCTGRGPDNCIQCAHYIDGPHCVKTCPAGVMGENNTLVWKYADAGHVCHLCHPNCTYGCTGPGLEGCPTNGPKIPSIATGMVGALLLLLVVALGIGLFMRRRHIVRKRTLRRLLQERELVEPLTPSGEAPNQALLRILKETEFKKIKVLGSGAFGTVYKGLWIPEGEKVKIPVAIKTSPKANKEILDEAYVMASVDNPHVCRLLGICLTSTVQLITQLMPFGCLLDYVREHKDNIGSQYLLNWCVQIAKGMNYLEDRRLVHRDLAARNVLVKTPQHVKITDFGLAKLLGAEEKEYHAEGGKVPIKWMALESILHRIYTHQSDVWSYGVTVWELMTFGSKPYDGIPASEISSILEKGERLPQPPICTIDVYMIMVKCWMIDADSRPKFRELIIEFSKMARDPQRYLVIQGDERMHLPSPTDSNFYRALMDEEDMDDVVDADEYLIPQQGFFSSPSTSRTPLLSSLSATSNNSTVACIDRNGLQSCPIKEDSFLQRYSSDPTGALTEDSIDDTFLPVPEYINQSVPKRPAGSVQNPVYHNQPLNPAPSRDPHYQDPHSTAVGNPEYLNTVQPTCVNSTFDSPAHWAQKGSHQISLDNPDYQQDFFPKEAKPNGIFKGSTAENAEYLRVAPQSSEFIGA
In short: (§3)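 IC50 values come from TR-FRET detection of EGFR phosphorylated at Tyr1068 in whole-cell lysates. Compound exposure lasts 4 h at 37 °C across nine 3-fold concentrations, and the wildtype-amplified A431 line receives 40 ng/mL EGF during the last 10 minutes.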

[4] = molecular target: T2, pEGFR, A431 cells (wildtype EGFR) (Homo sapiens, UniProt P00533); experiment: Cellular EGFR phosphorylation assay (LANCE Ultra TR-FRET) in A431 cells
T2 construct: pEGFR (Tyr1068) TR-FRET
T2 sequence (P00533 25-1210): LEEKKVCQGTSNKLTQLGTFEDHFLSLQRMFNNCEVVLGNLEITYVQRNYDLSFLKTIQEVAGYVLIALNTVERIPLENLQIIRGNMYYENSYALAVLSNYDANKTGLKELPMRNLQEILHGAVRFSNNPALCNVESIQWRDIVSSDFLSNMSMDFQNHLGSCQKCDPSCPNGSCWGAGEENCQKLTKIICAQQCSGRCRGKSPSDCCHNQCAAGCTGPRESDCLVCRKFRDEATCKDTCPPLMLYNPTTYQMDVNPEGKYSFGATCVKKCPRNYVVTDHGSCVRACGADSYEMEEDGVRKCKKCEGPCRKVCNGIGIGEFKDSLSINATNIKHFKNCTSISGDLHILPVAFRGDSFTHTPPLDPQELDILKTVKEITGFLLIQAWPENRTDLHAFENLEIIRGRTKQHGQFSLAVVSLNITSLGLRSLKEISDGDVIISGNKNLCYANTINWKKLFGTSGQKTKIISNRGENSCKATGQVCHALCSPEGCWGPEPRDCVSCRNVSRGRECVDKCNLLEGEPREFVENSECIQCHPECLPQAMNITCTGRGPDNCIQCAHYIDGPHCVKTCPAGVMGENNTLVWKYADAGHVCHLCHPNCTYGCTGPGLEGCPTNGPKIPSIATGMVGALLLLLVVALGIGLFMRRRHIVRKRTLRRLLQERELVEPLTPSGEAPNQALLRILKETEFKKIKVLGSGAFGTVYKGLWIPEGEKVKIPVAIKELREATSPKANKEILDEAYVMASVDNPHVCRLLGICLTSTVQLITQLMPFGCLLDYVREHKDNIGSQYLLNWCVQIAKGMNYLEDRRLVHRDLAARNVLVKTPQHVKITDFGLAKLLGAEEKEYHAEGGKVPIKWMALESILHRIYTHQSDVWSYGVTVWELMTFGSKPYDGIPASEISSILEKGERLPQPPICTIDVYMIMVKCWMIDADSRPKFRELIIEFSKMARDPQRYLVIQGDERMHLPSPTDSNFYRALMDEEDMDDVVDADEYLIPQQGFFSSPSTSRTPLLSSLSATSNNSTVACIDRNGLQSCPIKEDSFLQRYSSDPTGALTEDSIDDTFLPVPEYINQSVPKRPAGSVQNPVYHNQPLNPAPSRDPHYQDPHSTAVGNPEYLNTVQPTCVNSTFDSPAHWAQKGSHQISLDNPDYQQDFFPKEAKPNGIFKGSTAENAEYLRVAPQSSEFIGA
In short: as §3

NCI-H1975 cells = experiment: 5-Day CellTiter Glo (CTG) cell proliferation assay, NCI-H1975; settings: Homo sapiens; NCI-H1975 cells (L858R/T790M EGFR), 5-day CTG proliferation, 120 hours; read-out: H1975 IC50
In short: (§4)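 Luminescent ATP signal (CellTiter-Glo 2.0) after 120 hours of compound exposure gave IC50 values. PC-9 and HCC827 harbour EGFR d746-750; NCI-H1975 harbours L858R/T790M.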

[5] = molecular target: T3, pEGFR, NCI-H1975 cells (L858R/T790M EGFR) (Homo sapiens, UniProt P00533, L858R/T790M); experiment: Cellular EGFR phosphorylation assay (LANCE Ultra TR-FRET) in NCI-H1975 cells
T3 construct: pEGFR (Tyr1068) TR-FRET
T3 sequence (P00533 25-1210 T790M/L858R): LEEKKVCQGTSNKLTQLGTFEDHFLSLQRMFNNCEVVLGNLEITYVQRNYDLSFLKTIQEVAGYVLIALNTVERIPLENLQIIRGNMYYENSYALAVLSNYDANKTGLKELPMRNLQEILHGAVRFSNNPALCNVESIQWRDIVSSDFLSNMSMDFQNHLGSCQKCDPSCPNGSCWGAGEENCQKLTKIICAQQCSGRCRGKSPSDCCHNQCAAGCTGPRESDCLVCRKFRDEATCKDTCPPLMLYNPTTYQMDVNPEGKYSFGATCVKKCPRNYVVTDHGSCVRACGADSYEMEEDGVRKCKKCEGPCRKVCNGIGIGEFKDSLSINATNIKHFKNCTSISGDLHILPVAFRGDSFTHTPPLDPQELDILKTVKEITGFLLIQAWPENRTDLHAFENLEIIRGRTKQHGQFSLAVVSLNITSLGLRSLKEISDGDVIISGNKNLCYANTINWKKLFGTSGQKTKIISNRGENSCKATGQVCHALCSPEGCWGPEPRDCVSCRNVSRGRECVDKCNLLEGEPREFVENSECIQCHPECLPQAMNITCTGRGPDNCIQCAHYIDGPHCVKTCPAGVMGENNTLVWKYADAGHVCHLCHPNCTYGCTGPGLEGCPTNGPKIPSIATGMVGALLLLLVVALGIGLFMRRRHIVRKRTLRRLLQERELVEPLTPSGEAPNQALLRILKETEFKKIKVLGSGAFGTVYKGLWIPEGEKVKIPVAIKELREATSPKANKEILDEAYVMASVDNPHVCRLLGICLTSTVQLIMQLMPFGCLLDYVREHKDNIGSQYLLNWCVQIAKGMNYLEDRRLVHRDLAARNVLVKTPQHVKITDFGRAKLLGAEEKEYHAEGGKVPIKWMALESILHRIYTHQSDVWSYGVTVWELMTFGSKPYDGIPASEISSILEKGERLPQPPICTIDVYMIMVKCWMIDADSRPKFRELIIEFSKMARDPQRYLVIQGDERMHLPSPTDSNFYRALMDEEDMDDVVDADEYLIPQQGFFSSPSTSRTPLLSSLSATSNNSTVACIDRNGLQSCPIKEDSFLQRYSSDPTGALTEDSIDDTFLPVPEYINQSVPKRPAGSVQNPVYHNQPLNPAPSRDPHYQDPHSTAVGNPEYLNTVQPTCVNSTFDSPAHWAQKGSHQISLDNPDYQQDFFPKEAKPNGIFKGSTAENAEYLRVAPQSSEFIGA
In short: as §3

HCC827 cells = experiment: 5-Day CellTiter Glo (CTG) cell proliferation assay, HCC827; settings: Homo sapiens; HCC827 cells (d746-750 EGFR), 5-day CTG proliferation, 120 hours; read-out: HCC827 IC50
In short: as §4

[6] = tested on: BaF3 cells with engineered EGFR d746-750/T790M; experiment: 3-Day CellTiter Glo (CTG) cell proliferation assay, BaF3 EGFR d746-750/T790M; settings: Mus musculus; BaF3 EGFR d746-750/T790M cells, 3-day CTG proliferation, 72 hours
Method: as §1, §2

PC-9 cells = experiment: 5-Day CellTiter Glo (CTG) cell proliferation assay, PC-9; settings: Homo sapiens; PC-9 cells (d746-750 EGFR), 5-day CTG proliferation, 120 hours; read-out: PC-9 IC50
In short: as §4

[7] = 4 hours at 37° C., read-out: PC-9 pEGFR IC50
[8] = 4 hours at 37° C., 40 ng/mL EGF for the final 10 minutes, read-out: A431 pEGFR IC50
[9] = 4 hours at 37° C., read-out: H1975 pEGFR IC50

Row | SMILES | IC50 [1] | IC50 [2] | IC50 [3, 7] | IC50 [4, 8] | IC50 (NCI-H1975 cells) | IC50 [5, 9] | IC50 (HCC827 cells) | IC50 [6] | IC50 (PC-9 cells) | IC50 ([3]; read-out: PC-9 pEGFR IC50, 4 hours at 37° C.) | IC50 ([4]; read-out: A431 pEGFR IC50, 4 hours at 37° C., 40 ng/mL EGF for the final 10 minutes) | IC50 ([5]; read-out: H1975 pEGFR IC50, 4 hours at 37° C.)
1 | CCOc1nn([C@H](C)CO)c2c1/C=C/c1n[nH]c3cnc(cc13)-c1c(C)nn(C)c1O[C@@H](C)CN(C)C2 [Ex. 88, (2R)-2-[(10S,17E)-16-ethoxy-6,8,10,12-tetramethyl-2,8,10,11,12,13-hexahydro-14H-5,3-(azenometheno)tripyrazolo[3,4-f:3′,4′-j:4″,3″-n][1,4]oxazacyclopentadecin-14-yl]propan-1-ol] | 0.86 nM | 0.09 nM | 1.62 nM | 11 nM | 5.09 nM | 2.17 nM | 0.39 nM | 1.56 nM | 2.52 nM |  |  | 
2 | Cc1nn(CCO)c2c1/C=C/c1n[nH]c3c(C)nc(cc13)-c1c(C)nn(C)c1O[C@@H](C)CN(C(C)C)C2 [Ex. 109, 2-[(10S,17E)-6,8,10,16,20-pentamethyl-12-(propan-2-yl)-2,8,10,11,12,13-hexahydro-14H-5,3-(azenometheno)tripyrazolo[3,4-f3′,4′-j:4″,3″-n][1,4]oxazacyclopentadecin-14-yl]ethan-1-ol] | 1.17 nM | 0.24 nM | 2.91 nM | 3.52 nM | 2.65 nM | 1.79 nM | 0.9 nM | 1.17 nM | 5.53 nM |  |  | 
3 | CCOc1nn([C@@H](C)CO)c2c1/C=C/c1n[nH]c3c(C)nc(cc13)-c1c(C)nn(C)c1O[C@@H](C)CNC2 [Ex. 91, (2S)-2-[(10S,17E)-16-ethoxy-6,8,10,20-tetramethyl-2,8,10,11,12,13-hexahydro-14H-5,3-(azenometheno)tripyrazolo[3,4-f:3′,4′-j:4″,3″-n][1,4]oxazacyclopentadecin-14-yl]propan-1-ol] | 17.2 nM | 9.29 nM | 69.5 nM | 34.8 nM | 57 nM | 21.3 nM | 16.8 nM | 45.7 nM | 63 nM |  |  | 
4 | CCN(C)c1nn([C@@H](C)CO)c2c1/C=C/c1n[nH]c3cnc(cc13)-c1c(C)nn(C)c1O[C@@H](C)CN(C)C2 [Ex. 105, (2S)-2-[(10S,17E)-16-[ethyl(methyl)amino]-6,8,10,12-tetramethyl-2,8,10,11,12,13-hexahydro-14H-5,3-(azenometheno)tripyrazolo[3,4-f:3′,4′-j:4″,3″-n][1,4]oxazacyclopentadecin-14-yl]propan-1-ol] | 147 nM | 15.5 nM | 319 nM | 365 nM |  | 274 nM | 52.1 nM | 700 nM | 209 nM |  |  | 
5 | CCOc1nn([C@@H](C)CO)c2c1/C=C/c1n[nH]c3c(C)nc(cc13)-c1c(C)nn(C)c1O[C@@H](C)[C@H]1CCCN1C2 [Ex. 179, (2S)-2-[(8aR,9S,19E)-1-ethoxy-9,11,13,21-tetramethyl-7,8,8a,9,11,17-hexahydro-6H-14,16-(azenometheno)tripyrazolo[3,4-f:3′,4′-j:4″,3″-n]pyrrolo[2,1-c][1,4]oxazacyclopentadecin-3(4H)-yl]propan-1-ol] | 1.47 nM | 0.1 nM | 0.69 nM | 8.64 nM | 1.41 nM | 1.38 nM | 0.23 nM | 0.88 nM | 0.78 nM |  |  | 
6 | CCOc1nn(CCO)c2c1/C=C/c1n[nH]c3cnc(cc13)-c1c(cnn1C)OCCN(C)C2 [Ex. 104, 2-[(17E)-16-ethoxy-6,12-dimethyl-2,6,10,11,12,13-hexahydro-14H-5,3-(azenometheno)tripyrazolo[3,4-f:3′,4′-j:3″,4″-n][1,4]oxazacyclopentadecin-14-yl]ethan-1-ol] | 36.2 nM | 6.89 nM | 39.8 nM | 146 nM |  | 50.5 nM | 13.9 nM | 63.9 nM | 59 nM |  |  | 
7 | Cc1nn(C)c2c1/C=C/c1n[nH]c3c(C)nc(cc13)-c1c(C)nn(C)c1O[C@@H](C)CN(C(C)C)C2 [Ex. 106, (10S,17E)-6,8,10,14,16,20-hexamethyl-12-(propan-2-yl)-2,10,11,12,13,14-hexahydro-8H-5,3-(azenometheno)tripyrazolo[3,4-f:3′,4′-j:4″,3″-n][1,4]oxazacyclopentadecine] | 3.41 nM | 1.37 nM | 9 nM | 10.2 nM | 7.92 nM | 3.03 nM | 2.18 nM | 4.75 nM | 14.6 nM |  |  | 
8 | CCOc1nn([C@@H](C)CO)c2c1/C=C/c1n[nH]c3cnc(cc13)-c1c(C)nn(C)c1OC[C@@H](C)N(C)C2 [Ex. 97, (2S)-2-[(11R,17E)-16-ethoxy-6,8,11,12-tetramethyl-2,8,10,11,12,13-hexahydro-14H-5,3-(azenometheno)tripyrazolo[3,4-f:3′,4′-j:4″,3″-n][1,4]oxazacyclopentadecin-14-yl]propan-1-ol] | 0.43 nM | 0.04 nM | 1.08 nM | 11 nM | 1.77 nM | 1.62 nM | 0.2 nM | 0.4 nM | 1.39 nM |  |  | 
9 | CCNc1nn([C@@H](C)CO)c2c1/C=C/c1n[nH]c3c(C)nc(cc13)-c1c(C)nn(C)c1O[C@@H](C)CN(C)C2 [Ex. 94, (2S)-2-[(10S,17E)-16-(ethylamino)-6,8,10,12,20-pentamethyl-2,8,10,11,12,13-hexahydro-14H-5,3-(azenometheno)tripyrazolo[3,4-f:3′,4′-j:4″,3″-n][1,4]oxazacyclopentadecin-14-yl]propan-1-ol] | 0.93 nM | 0.09 nM |  |  | 1.76 nM |  | 0.71 nM | 1.23 nM | 3.52 nM | 2.31 nM | 17.8 nM | 1.55 nM
10 | CCNc1nn([C@@H](C)CO)c2c1/C=C/c1n[nH]c3cnc(cc13)-c1c(C)nn(C)c1O[C@@H](C)CN(C)C2 [Ex. 93, (2S)-2-[(10S,17E)-16-(ethylamino)-6,8,10,12-tetramethyl-2,8,10,11,12,13-hexahydro-14H-5,3-(azenometheno)tripyrazolo[3,4-f:3′,4′-j:4″,3″-n][1,4]oxazacyclopentadecin-14-yl]propan-1-ol] | 1.65 nM | 0.13 nM | 2.05 nM | 19.6 nM | 2 nM | 3.54 nM | 0.51 nM | 1.8 nM | 1.98 nM |  |  | 
11 | CCOc1nn([C@H](C)CO)c2c1/C=C/c1n[nH]c3c(C)nc(cc13)-c1c(C)nn(C)c1O[C@@H](C)CN(C)C2 [Ex. 95, (2R)-2-[(10S,17E)-16-ethoxy-6,8,10,12,20-pentamethyl-2,8,10,11,12,13-hexahydro-14H-5,3-(azenometheno)tripyrazolo[3,4-f:3′,4′-j:4″,3″-n][1,4]oxazacyclopentadecin-14-yl]propan-1-ol] | 0.74 nM | 0.13 nM | 3.35 nM | 17.7 nM | 2.86 nM | 1.76 nM | 1.15 nM | 2.14 nM | 5.19 nM |  |  | 
12 | C=CC(=O)N1Cc2c(c(OCC)nn2[C@@H](C)CO)/C=C/c2n[nH]c3cnc(cc23)-c2c(C)nn(C)c2O[C@@H](C)C1 [Ex. 115, 1-[(10S,17E)-16-ethoxy-14-[(2S)-1-hydroxypropan-2-yl]-6,8,10-trimethyl-2,8,10,11,13,14-hexahydro-12H-5,3-(azenometheno)tripyrazolo[3,4-f:3′,4′-j:4″,3″-n][1,4]oxazacyclopentadecin-12-yl]prop-2-en-1-one] | 31.9 nM | 9.04 nM |  |  | 6.13 nM |  | 1.47 nM | 3.05 nM | 3.35 nM |  |  | 
